Assay [1] concerns oocytes. As to conditions: literature (Kim et al 2010, Bernhardt et al 2011); cited from earlier work.
In assay [2] the test system is MII eggs. As to the kind of experiment: Activation of in vivo ovulated MII eggs (SrCl2, TPEN, ZnPT pre-treatment). Here is the method: Ovulated MII eggs were collected as described above. Eggs were transferred to KSOM medium with or without 10 μM ZnPT (1:1000 dilution of a 10 mM stock in DMSO) for exactly 5 minutes. Eggs were then washed in KSOM and allowed to recover for 10-15 minutes prior to activation. For SrCl2 activation, eggs were transferred to drops of calcium-free KSOM containing 10 mM SrCl2 for 2 hours, followed by 4 additional hours of culture in calcium-containing KSOM without SrCl2. TPEN activation was performed as previously described (Kim et al., 2011); eggs were cultured for 6 hours in KSOM containing 10 μM TPEN. Unactivated controls were cultured in KSOM for the same 6 hour time period to assess levels of spontaneous parthenogenesis.
MII eggs were treated with the ionophore zinc pyrithione (ZnPT) for 5 minutes to increase intracellular zinc. Following a 10-15 minute recovery period, eggs were then treated with activating agents SrCl2 or TPEN.

The target in assay [3] is T1, Emi2 (Mus musculus, UniProt Q8CDI2).
T1 construct: expressed in transfected cells; host or cells: mouse oocytes microinjected with in vitro transcribed cRNA (pIVT vector)
T1 sequence (Q8CDI2 1-640): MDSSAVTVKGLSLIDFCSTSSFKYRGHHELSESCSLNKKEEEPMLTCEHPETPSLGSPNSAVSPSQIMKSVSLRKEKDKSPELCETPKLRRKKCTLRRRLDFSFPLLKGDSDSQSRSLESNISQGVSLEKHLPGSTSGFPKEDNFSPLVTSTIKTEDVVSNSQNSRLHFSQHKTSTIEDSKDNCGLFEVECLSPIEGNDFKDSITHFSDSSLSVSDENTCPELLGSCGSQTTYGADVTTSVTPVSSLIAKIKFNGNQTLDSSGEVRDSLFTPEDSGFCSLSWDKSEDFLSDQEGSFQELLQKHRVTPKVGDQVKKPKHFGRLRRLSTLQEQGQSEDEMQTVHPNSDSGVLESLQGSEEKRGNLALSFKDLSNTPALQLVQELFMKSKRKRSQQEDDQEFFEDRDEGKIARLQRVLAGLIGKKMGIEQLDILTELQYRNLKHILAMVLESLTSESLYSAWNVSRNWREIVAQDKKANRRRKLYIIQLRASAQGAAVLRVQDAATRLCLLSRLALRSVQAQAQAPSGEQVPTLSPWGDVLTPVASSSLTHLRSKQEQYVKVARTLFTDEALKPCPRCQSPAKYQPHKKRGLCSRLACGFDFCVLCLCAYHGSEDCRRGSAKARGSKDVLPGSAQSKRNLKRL
As to the kind of experiment: MI arrest induced by Emi2 cRNA injected into GV oocytes, IVM with or without TPEN. Type of assay: cell-based. Particulars: IVM medium with 10 μM TPEN 14 h. On the procedure:
Oocytes were denuded of cumulus cells and fixed in a microtubule stabilizing buffer (Ibanez et al., 2005) containing 2% formaldehyde and 1% Triton X-100 for 30 min at 37° C. Oocytes were washed and blocked in PBS containing 0.1M glycine, 3mg/mL BSA, 0.01% Tween 20, and 0.01% sodium azide for at least 1 h and were stored in blocking solution at 4° C. for up to 2 weeks. Oocytes were incubated with anti-tubulin antibody (1:100) for 1 h at 37C. followed by three washes in blocking solution. They were then incubated for 1 h in AlexaFluor-488 conjugated anti-mouse secondary antibody (5μg/mL) and rhodamine-phalloidin (2U/mL), washed three additional times, and mounted in VECTASHIELD with DAPI. Microscopy was performed using a Leica SP5 inverted laser-scanning confocal microscope with a 63x oil immersion objective (Leica Microsystems, Heidelberg, Germany). Images were processed using LAS AF software (Leica Microsystems).
Microinjection was performed essentially as previously described (Bernhardt et al., 2010). GV intact oocytes were collected and manually denuded of cumulus cells in L-15/FBS containing 0.2 mM IBMX, then transferred to drops of L-15 medium containing 0.05% (w/v) polyvinyl alcohol (PVA) and 0.5% (v/v) penicillin-streptomycin (Invitrogen) under light mineral oil on a heated stage for injection. […]

Each structure is given as a SMILES string.

`c1ccc(CN(CCN(Cc2ccccn2)Cc2ccccn2)Cc2ccccn2)nc1` [TPEN, N,N,N′,N′-tetrakis(2-pyridylmethyl)ethylenediamine]: the “meiotic arrest on TPEN treatment during the MI-MII transition” value in assay [1] is on record as “causes meiotic arrest at telophase-I”. For the same molecule, the “egg activation by TPEN after ZnPT pre-treatment” value in assay [2] (MII eggs, 10 μM ZnPT 5 minutes, then 10 μM TPEN 6 h) was “caused activation”. Moreover, the “egg activation (second polar body and PN or PN-like structures)” value in assay [2] (control MII eggs, by 6 hours post activation, 10 mM SrCl2 2 h or 10 μM TPEN 6 h) was “activated normally”. Further, the “oocytes arrested at MI” value in assay [3] is 44%.
